Assay results published in patent US7262185B2, “Benzazepine derivative, process for producing the same, and use” (Takeda Chemical Industries Ltd., priority 2001, dated 2007).

First: CCCCOCCOc1ccc(-c2ccc3c(c2)C=C(C(=O)Nc2ccc(C(O)c4ccc(C)cn4)cc2)CCN3C(=O)C(F)(F)F)cc1 (centres unmarked) [Compound 103, 7-[4-(2-butoxyethoxy)phenyl]-N-[4-[hydroxy(5-methylpyridin-2-yl)methyl]phenyl]-1-trifluoroacetyl-2,3-dihydro-1H-1-benzazepine-4-carboxamide]
Second: CCCCOCCOc1ccc(-c2ccc3c(c2)C=C(C(=O)Nc2ccc(C(O)c4ccc(Cl)cn4)cc2)CCN3C(=O)C(F)(F)F)cc1 (centres unmarked) [Compound 107, 7-[4-(2-butoxyethoxy)phenyl]-N-[4-[hydroxy(5-chloropyridin-2-yl)methyl]phenyl]-1-trifluoroacetyl-2,3-dihydro-1H-1-benzazepine-4-carboxamide]
The melting point of the first is lower: 110 to 113 °C for the first, 144 to 146 °C for the second.

First: CCCCOCCOc1ccc(-c2ccc3c(c2)C=C(C(=O)Nc2ccc(C(O)c4cccc(C)[n+]4[O-])cc2)CCN3C(=O)C(F)(F)F)cc1 (centres unmarked) [Compound 96, 7-[4-(2-butoxyethoxy)phenyl]-N-[4-[hydroxy(6-methyl-1-oxidopyridin-2-yl)methyl]phenyl]-1-trifluoroacetyl-2,3-dihydro-1H-1-benzazepine-4-carboxamide]
Second: CCCCOCCOc1ccc(-c2ccc3c(c2)C=C(C(=O)Nc2ccc([C@H](O)c4ccccn4)cc2)CCN3C(=O)C(F)(F)F)cc1 [Compound 79, 7-[4-(2-butoxyethoxy)phenyl]-N-[4-[(S)-hydroxy(2-pyridyl)methyl]phenyl]-1-trifluoroacetyl-2,3-dihydro-1H-1-benzazepine-4-carboxamide]
The melting point of the first is higher: 170 to 173 °C for the first, 100 to 102 °C for the second.

Compared with `CCCCOCCOc1ccc(-c2ccc3c(c2)C=C(C(=O)Nc2ccc(S(=O)(=O)Cc4cncn4CC(N)=O)cc2)CCN3CC(C)C)cc1` [Compound 431, N-[4-[[[1-(2-amino-2-oxoethyl)-1H-imidazol-5-yl]methyl]sulfonyl]phenyl]-7-[4-(2-butoxyethoxy)phenyl]-1-isobutyl-2,3-dihydro-1H-1-benzazepine-4-carboxamide], `CCCCOCCOc1ccc(-c2ccc3c(c2)C=C(C(=O)Nc2ccc(S(=O)(=O)Cc4ncn(C)n4)cc2)CCN3CC(C)C)cc1` [Compound 127, 7-[4-(2-butoxyethoxy)phenyl]-1-isobutyl-N-[4-(1-methyl-1H-1,2,4-triazol-3-ylmethylsulfonyl)phenyl]-2,3-dihydro-1H-benzazepine-4-carboxamide] is lower in melting point: 229 to 231 °C for the first, 205 to 208 °C for the second.

First: CCCCOCCOc1ccc(-c2ccc3c(c2)C=C(C(=O)Nc2ccc([C@H](O)c4cccc[n+]4[O-])cc2)CCN3Cc2ccnn2C)cc1 [Compound 89, 7-[4-(2-butoxyethoxy)phenyl]-N-[4-[(S)-hydroxy(1-oxidopyridin-2-yl)methyl]phenyl]-1-(1-methylpyrazol-5-ylmethyl)-2,3-dihydro-1H-1-benzazepine-4-carboxamide]
Second: CCCCOCCOc1ccc(-c2ccc3c(c2)C=C(C(=O)Nc2ccc([C@H](O)c4cccc[n+]4[O-])cc2)CCN3Cc2nccs2)cc1 [Compound 86, 7-[4-(2-butoxyethoxy)phenyl]-N-[4-[(S)-hydroxy(1-oxidopyridin-2-yl)methyl]phenyl]-1-(thiazol-2-ylmethyl)-2,3-dihydro-1H-1-benzazepine-4-carboxamide]
The melting point of the first is lower: 109 to 111 °C for the first, 164 to 165 °C for the second.

Compared with `CCCCOCCOc1ccc(-c2ccc3c(c2)C=C(C(=O)Nc2ccc(C(O)c4cc(C)cc[n+]4[O-])c(C(F)(F)F)c2)CCN3CCC)cc1` (centres unmarked) [Compound 17, 7-[4-(2-butoxyethoxy)phenyl]-N-[4-[hydroxy(4-methyl-1-oxidopyridin-2-yl)methyl]-3-trifluoromethylphenyl]-1-propyl-2,3-dihydro-1H-1-benzazepine-4-carboxamide], `CCCCOCCOc1ccc(-c2ccc3c(c2)C=C(C(=O)Nc2ccc(C(O)c4cc(C)cc[n+]4[O-])c(C(F)(F)F)c2)CCN3)cc1` (centres unmarked) [Compound 16, 7-[4-(2-butoxyethoxy)phenyl]-N-[4-[hydroxy(4-methyl-1-oxidopyridin-2-yl)methyl]-3-trifluoromethylphenyl]-2,3-dihydro-1H-1-benzazepine-4-carboxamide] is higher in melting point: 103 to 105 °C for the first, 124 to 128 °C for the second.

First: CCCCOCCOc1ccc(-c2ccc3c(c2)C=C(C(=O)Nc2ccc([S+]([O-])CCn4cnnc4)cc2)CCN3CC(C)C)cc1 (centres unmarked) [Compound 155, 7-[4-(2-butoxyethoxy)phenyl]-N-[4-(4H-1,2,4-triazol-4-ylethylsulfinyl)phenyl]-1-isobutyl-2,3-dihydro-1H-benzazepine-4-carboxamide]
Second: CCCCOCCOc1ccc(-c2ccc3c(c2)C=C(C(=O)Nc2ccc([S+]([O-])Cc4nncn4C)cc2)CCN3CC(C)C)cc1 (centres unmarked) [Compound 131, 7-[4-(2-butoxyethoxy)phenyl]-N-[4-(4-methyl-4H-1,2,4-triazol-3-ylmethylsulfinyl)phenyl]-1-isobutyl-2,3-dihydro-1H-1-benzazepine-4-carboxamide]
The melting point of the first is higher: 168 to 170 °C for the first, 103 to 105 °C for the second.

Compared with `CCCCOCCOc1ccc(-c2ccc3c(c2)C=C(C(=O)Nc2ccc([S+]([O-])Cc4nncn4C)cc2)CCN3CCC)cc1` (centres unmarked) [Compound 133, 7-[4-(2-butoxyethoxy)phenyl]-N-[4-(4-methyl-4H-1,2,4-triazol-3-ylmethylsulfinyl)phenyl]-1-propyl-2,3-dihydro-1H-1-benzazepine-4-carboxamide], `CCCCOCCOc1ccc(-c2ccc3c(c2)C=C(C(=O)Nc2ccc([S+]([O-])Cc4nncn4CCCC)cc2)CCN3CCC)cc1` (centres unmarked) [Compound 145, 7-[4-(2-butoxyethoxy)phenyl]-N-[4-(4-n-butyl-4H-1,2,4-triazol-3-ylmethylsulfinyl)phenyl]-1-propyl-2,3-dihydro-1H-benzazepine-4-carboxamide] is higher in melting point: 101 to 103 °C for the first, 157 to 160 °C for the second.

First: CCCCOCCOc1ccc(-c2ccc3c(c2)C=C(C(=O)Nc2ccc(SCc4nncn4CC(C)C)cc2)CCN3CCC)cc1 [Compound 32, 7-[4-(2-butoxyethoxy)phenyl]-N-[4-[(4-isobutyl-4H-1,2,4-triazol-3-yl)methylthio]phenyl]-1-propyl-2,3-dihydro-1H-1-benzazepine-4-carboxamide]
Second: CCCCOCCOc1ccc(-c2ccc3c(c2)C=C(C(=O)Nc2ccc(N(C)Cc4nncn4CCC)cc2)CCN3CC(C)C)cc1 [Compound 150, 7-[4-(2-butoxyethoxy)phenyl]-1-isobutyl-N-[4-[methyl(4-propyl-4H-1,2,4-triazol-3-ylmethyl)amino]phenyl]-2,3-dihydro-1H-benzazepine-4-carboxamide]
The melting point of the first is lower: 130 to 132 °C for the first, 134 to 136 °C for the second.

Compared with `CCCCOCCOc1ccc(-c2ccc3c(c2)C=C(C(=O)Nc2ccc([C@H](O)c4ccccn4)cc2)CCN3C=O)cc1` [Compound 75, 7-[4-(2-butoxyethoxy)phenyl]-1-formyl-N-[4-[(S)-hydroxy(2-pyridyl)methyl]phenyl]-2,3-dihydro-1H-1-benzazepine-4-carboxamide], `CCCCOCCOc1ccc(-c2ccc3c(c2)C=C(C(=O)Nc2ccc(C(O)c4c(OCCC)ccc[n+]4[O-])cc2)CCN3)cc1` (centres unmarked) [Compound 113, 7-[4-(2-butoxyethoxy)phenyl]-N-[4-[hydroxy(1-oxido-3-propoxypyridine-2-yl)methyl]phenyl]-2,3-dihydro-1H-1-benzazepine-4-carboxamide] is higher in melting point: 130 to 134 °C for the first, 148 to 149 °C for the second.

First: CCCCOCCOc1ccc(-c2ccc3c(c2)C=C(C(=O)Nc2ccc(C(O)c4cc(C)cc[n+]4[O-])c(OC)c2)CCN3CC(C)C)cc1 (centres unmarked) [Compound 10, 7-[4-(2-butoxyethoxy)phenyl]-N-[4-[hydroxy(4-methyl-1-oxidopyridin-2-yl)methyl]-3-methoxyphenyl]-1-isobutyl-2,3-dihydro-1H-1-benzazepine-4-carboxamide]
Second: CCCCOCCOc1ccc(-c2ccc3c(c2)C=C(C(=O)Nc2ccc(C(O)c4cccc[n+]4[O-])c(Cl)c2)CCN3CC(C)C)cc1 (centres unmarked) [Compound 6, 7-[4-(2-butoxyethoxy)phenyl]-N-[3-chloro-4-[hydroxy(1-oxidopyridin-2-yl)methyl]phenyl]-1-isobutyl-2,3-dihydro-1H-1-benzazepine-4-carboxamide]
The melting point of the first is higher: 174 to 176 °C for the first, 105 to 107 °C for the second.

Compared with `CCCCOCCOc1ccc(-c2ccc3c(c2)C=C(C(=O)Nc2ccc(SCCn4cnnc4)cc2)CCN3CCC)cc1` [Compound 156, 7-[4-(2-butoxyethoxy)phenyl]-N-[4-(4H-1,2,4-triazol-4-ylethylthio)phenyl]-1-propyl-2,3-dihydro-1H-benzazepine-4-carboxamide], `CCCCOCCOc1ccc(-c2ccc3c(c2)C=C(C(=O)Nc2ccc(CCCn4cnnc4)cc2)CCN3CCC)cc1` [Compound 64, 7-[4-(2-butoxyethoxy)phenyl]-1-propyl-N-[4-[3-(4H-1,2,4-triazol-4-yl)propyl]phenyl]-2,3-dihydro-1H-1-benzazepine-4-carboxamide] is higher in melting point: 114 to 115 °C for the first, 191 to 194 °C for the second.

First: CCCCOCCOc1ccc(-c2ccc3c(c2)C=C(C(=O)Nc2ccc(N(C)Cc4nncn4CCC)cc2)CCN3CCC)cc1 [Compound 151, 7-[4-(2-butoxyethoxy)phenyl]-N-[4-[methyl(4-propyl-4H-1,2,4-triazol-3-ylmethyl)amino]phenyl]-1-propyl-2,3-dihydro-1H-benzazepine-4-carboxamide]
Second: CCCCOCCOc1ccc(-c2ccc3c(c2)C=C(C(=O)Nc2ccc([S+]([O-])Cc4nncn4CCCC)cc2)CCN3CC(C)C)cc1 (centres unmarked) [Compound 143, 7-[4-(2-butoxyethoxy)phenyl]-N-[4-(4-n-butyl-4H-1,2,4-triazol-3-ylmethylsulfinyl)phenyl]-1-isobutyl-2,3-dihydro-1H-benzazepine-4-carboxamide]
The melting point of the first is lower: 131 to 133 °C for the first, 178 to 180 °C for the second.

Work on `CCCCOCCOc1ccc(-c2ccc3c(c2)C=C(C(=O)Nc2ccc(SCc4n[nH]c(=O)n4CCC)cc2)CCN3CC(C)C)cc1` [Compound 65, 7-[4-(2-butoxyethoxy)phenyl]-1-isobutyl-N-[4-[(4-propyl-1H-1,2,4-triazol-5-on-3-yl)methylthio]phenyl]-2,3-dihydro-1H-1-benzazepine-4-carboxamide] yielded a melting point of 98 to 101 °C.

For `CCCCOCCOc1ccc(-c2ccc3c(c2)C=C(C(=O)Nc2ccc([S+]([O-])Cc4nncn4CC(C)C)cc2)CCN3CCC)cc1` (centres unmarked) [Compound 33, 7-[4-(2-butoxyethoxy)phenyl]-N-[4-((4-isobutyl-4H-1,2,4-triazol-3-yl)methylsulfinyl]phenyl]-1-propyl-2,3-dihydro-1H-1-benzazepine-4-carboxamide], the melting point was 186 to 190 °C (dec.).
